Measurements from the supplement of paper PMC10627819.

Experiments:
B. subtilis 168 [1] = assay: Bliss interaction score (quartile over a dose matrix) (fitness difference); higher = more antagonism (negative = synergy)
How it was run: (§1)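 The Bliss score is observed fitness minus expected fitness, where the expected value is the product of single-drug fitness values inferred from combination data. Fitness is OD595 at entry into stationary phase normalised to the plate's robust no-drug mean and capped at 1. Scores are reported as quartiles spanning technical, biological and donor/recipient replicates.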

S. aureus DSM 20231 = assay: as above
How it was run: as §1

S. aureus Newman [2] = assay: as above
How it was run: as §1

S. pneumoniae D39V = assay: as above
How it was run: as §1

B. subtilis 168 [3] = assay: fitness (endpoint OD595 vs no drug) (fraction); higher = more growth
How it was run: (§2)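 Growth medium was TSB, LB Lennox or CY, and plates were kept at 37 °C. Inoculation was at OD595 0.01 in 384-well plates, at 30 µl per well or 55 µl for S. pneumoniae. OD595 was monitored every 30 min for 14 h and background-subtracted using the first reading. Fitness is the optical density on entering stationary phase divided by the robust mean of no-drug controls, with values capped at 1.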

S. aureus Newman [4] = assay: as above; settings: one replicate
How it was run: as §2
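For Bliss interaction score (quartile over a dose matrix) in this document: first quartile when negative (synergy) and third quartile when positive (antagonism).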
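For fitness (endpoint OD595 vs no drug) in this document: OD595 on entry to stationary phase over no-drug wells; at most 1.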

CO/N=C(\C(=O)N[C@@H]1C(=O)N2C(C(=O)O)=C(COC(N)=O)CS[C@H]12)c1ccco1 [Cefuroxime] + COc1ccc(C[C@H](N)C(=O)N[C@H]2[C@@H](O)[C@H](n3cnc4c(N(C)C)ncnc43)O[C@@H]2CO)cc1 [Puromycin]
Settings	Bliss interaction score
B. subtilis 168 [1]	0.1
S. aureus DSM 20231	0.127
S. aureus Newman [2]	0.0321
S. pneumoniae D39V	0.0887

fitness
Settings	first compound 0.04875 µg/mL	first compound 0.0975 µg/mL	first compound 0.195 µg/mL
B. subtilis 168 [3], partner 0.39 µg/mL	0.758	0.65	0.551
B. subtilis 168 [3], partner 0.78 µg/mL	0.787	0.705	0.539
B. subtilis 168 [3], partner 1.56 µg/mL	0.772	0.678	0.586
S. aureus Newman [4], partner 0.39 µg/mL	0.925	0.95	0.938
S. aureus Newman [4], partner 0.78 µg/mL	0.969	0.945	0.956
S. aureus Newman [4], partner 1.56 µg/mL	0.951	0.98	0.983

fitness, B. subtilis 168 [3], one replicate
Settings	first compound 1.562 µg/mL	first compound 3.125 µg/mL	first compound 6.25 µg/mL
partner 0.39 µg/mL	0.348	0.268	0.25
partner 0.78 µg/mL	0.369	0.288	0.286
partner 1.56 µg/mL	0.362	0.312	0.253

CO/N=C(\C(=O)N[C@@H]1C(=O)N2C(C(=O)O)=C(COC(N)=O)CS[C@H]12)c1ccco1 [Cefuroxime] + CN(C)c1cc(NC(=O)CNC(C)(C)C)c(O)c2c1C[C@H]1C[C@H]3[C@H](N(C)C)C(O)=C(C(N)=O)C(=O)[C@@]3(O)C(O)=C1C2=O [Tigecycline]
Settings	Bliss interaction score
B. subtilis 168 [1]	0.0459
S. aureus DSM 20231	0.0902
S. aureus Newman [2]	-0.0442
S. pneumoniae D39V	0.0499

fitness
Settings	partner 0.039 µg/mL	partner 0.078 µg/mL	partner 0.156 µg/mL
B. subtilis 168 [3], first compound 0.0975 µg/mL	0.652	0.677	0.669
B. subtilis 168 [3], first compound 0.195 µg/mL	0.553	0.53	0.537
S. aureus Newman [4], first compound 0.04875 µg/mL	0.933	0.907	0.95
S. aureus Newman [4], first compound 0.0975 µg/mL	0.927	0.959	0.895
S. aureus Newman [4], first compound 0.195 µg/mL	0.879	0.843	0.863

fitness, B. subtilis 168 [3], one replicate
Settings	first compound 0.195 µg/mL	first compound 0.39 µg/mL	first compound 0.78 µg/mL	first compound 1.562 µg/mL	first compound 3.125 µg/mL	first compound 6.25 µg/mL
partner 0.039 µg/mL	–	–	–	0.349	0.258	0.227
partner 0.078 µg/mL	–	–	–	0.284	0.219	0.17
partner 0.125 µg/mL	0.405	0.34	0.292	–	–	–
partner 0.156 µg/mL	–	–	–	0.283	0.235	0.153
partner 0.25 µg/mL	0.368	0.287	0.211	–	–	–
partner 0.5 µg/mL	0.398	0.299	0.259	–	–	–

CO/N=C(\C(=O)N[C@@H]1C(=O)N2C(C(=O)O)=C(COC(N)=O)CS[C@H]12)c1ccco1 [Cefuroxime] + COc1c(N2C[C@@H]3CCCN[C@@H]3C2)c(F)cc2c(=O)c(C(=O)O)cn(C3CC3)c12 [Moxifloxacin]
Settings	Bliss interaction score
B. subtilis 168 [1]	0.0178
S. aureus DSM 20231	-0.0502
S. aureus Newman [2]	-0.14
S. pneumoniae D39V	0.0473

fitness, B. subtilis 168 [3], one replicate
Settings	first compound 0.04875 µg/mL	first compound 0.0975 µg/mL	first compound 0.195 µg/mL	first compound 1.562 µg/mL	first compound 3.125 µg/mL	first compound 6.25 µg/mL
partner 0.0312 µg/mL	0.0482	0.0451	–	–	–	–
partner 0.0625 µg/mL	0.0309	0.0348	–	–	–	–
partner 0.125 µg/mL	0.0185	0.0123	–	–	–	–
partner 2 µg/mL	0.0399	0.0244	0.0298	0.0359	0.0258	0.0141
partner 4 µg/mL	0.0357	0.0206	0.0189	0.0269	0.0126	0.0118
partner 8 µg/mL	0.0177	0.0063	0.0088	0.02	0.0184	0.011

fitness
Settings	first compound 0.04875 µg/mL	first compound 0.0975 µg/mL	first compound 0.195 µg/mL	first compound 0.39 µg/mL	first compound 0.78 µg/mL
B. subtilis 168 [3], partner 0.0312 µg/mL	–	–	0.0354	0.0276	0.0247
B. subtilis 168 [3], partner 0.0625 µg/mL	–	–	0.0331	0.0172	0.0291
B. subtilis 168 [3], partner 0.125 µg/mL	–	–	0.0376	0.0259	0.0192
S. aureus Newman [4], partner 0.0075 µg/mL	0.631	0.593	0.595	–	–
S. aureus Newman [4], partner 0.015 µg/mL	0.439	0.4	0.445	–	–
S. aureus Newman [4], partner 0.03 µg/mL	0.034	0.0177	0.0236	–	–

CO/N=C(\C(=O)N[C@@H]1C(=O)N2C(C(=O)O)=C(COC(N)=O)CS[C@H]12)c1ccco1 [Cefuroxime] + CC1=C(C(=O)O)N2C(=O)[C@@H](NC(=O)[C@H](N)c3ccccc3)[C@H]2SC1 [Cephalexin]
Settings	Bliss interaction score
B. subtilis 168 [1]	-0.0402
S. aureus DSM 20231	0.0711
S. aureus Newman [2]	-0.0321
S. pneumoniae D39V	0.0313

fitness, B. subtilis 168 [3], one replicate
Settings	first compound 0.04875 µg/mL	first compound 0.0975 µg/mL	first compound 0.195 µg/mL	first compound 1.562 µg/mL	first compound 3.125 µg/mL	first compound 6.25 µg/mL
partner 0.125 µg/mL	0.871	0.73	0.654	0.31	0.24	0.218
partner 0.25 µg/mL	–	–	–	0.236	0.238	0.197
partner 0.5 µg/mL	–	–	–	0.24	0.179	0.109
partner 1 µg/mL	0.545	0.533	0.354	–	–	–

fitness
Settings	first compound 0.04875 µg/mL	first compound 0.0975 µg/mL	first compound 0.195 µg/mL
B. subtilis 168 [3], partner 0.25 µg/mL	0.709	0.683	0.507
B. subtilis 168 [3], partner 0.5 µg/mL	0.729	0.706	0.527
S. aureus Newman [4], partner 0.5 µg/mL	0.925	0.883	0.943
S. aureus Newman [4], partner 1 µg/mL	0.99	0.917	0.941
S. aureus Newman [4], partner 2 µg/mL	≥ 1	0.967	0.949

CO/N=C(\C(=O)N[C@@H]1C(=O)N2C(C(=O)O)=C(COC(N)=O)CS[C@H]12)c1ccco1 [Cefuroxime] + CC1=C\[C@@H](O)CC(=O)Cc2nc(co2)C(=O)N2CCC=C2C(=O)O[C@H](C(C)C)[C@H](C)/C=C/C(=O)NC\C=C\1 [Virginiamycin M1]
Settings	Bliss interaction score
B. subtilis 168 [1]	0.0564
S. aureus DSM 20231	0.103
S. aureus Newman [2]	-0.0495
S. pneumoniae D39V	-0.0415

fitness
Settings	partner 0.0625 µg/mL	partner 0.125 µg/mL	partner 0.25 µg/mL
B. subtilis 168 [3], first compound 0.04875 µg/mL	–	0.76	–
B. subtilis 168 [3], first compound 0.195 µg/mL	0.558	0.555	0.538
S. aureus Newman [4], first compound 0.04875 µg/mL	0.927	0.952	0.943
S. aureus Newman [4], first compound 0.0975 µg/mL	0.963	0.992	0.965
S. aureus Newman [4], first compound 0.195 µg/mL	0.89	0.944	0.893

fitness, B. subtilis 168 [3], one replicate
Settings	first compound 1.562 µg/mL	first compound 3.125 µg/mL	first compound 6.25 µg/mL
partner 0.0625 µg/mL	0.334	0.259	0.239
partner 0.125 µg/mL	0.325	0.26	0.208
partner 0.25 µg/mL	0.309	0.217	0.182
